Assay results: ChEMBL document CHEMBL4190258, “Spirograterpene A, a Tetracyclic Spiro-Diterpene with a Fused 5/5/5/5 Ring System from the Deep-Sea-Derived Fungus Penicillium granulatum MCCC 3A00475” (J Nat Prod, 2017)
In brackets after ≈: the same amount, converted by molar mass.

Legend:
RBL-2H3 = experiment: Antiallergic activity in DNP-BSA-stimulated rat RBL2H3 cells assessed as inhibition of anti-DNP-IgE-mediated degranulation by measuring beta-hexosaminidase activity at 20 microg/ml pre-incubated for 1 hr followed by DNP-BSA stimulation by fluorescence assay relative to control; format: functional
Staphylococcus aureus = experiment: Antibacterial activity against methicillin-resistant Staphylococcus aureus incubated for 18 hrs by broth microdilution method; format: functional
HL-60 = experiment: Cytotoxicity against human HL60 cells assessed as reduction in cell viability; format: functional, cell-based

## C[C@@H]1C[C@@H](O)[C@H](C)[C@@]12CCC1=C2C[C@@]2(C)CC[C@](C)(C(=O)O)[C@@H]12
RBL-2H3
  inhibition at 20 µg/mL: 18%

## C[C@H]1[C@H](O)CC(=O)[C@]2(C)CC[C@H]3[C@@H]4[C@@](C)(CO)CC[C@]4(C)C[C@]132
RBL-2H3
  inhibition at 20 µg/mL: 4%

## C[C@@H]1C=CC(=O)[C@@]2(C)CC[C@H]3[C@@]12C[C@]1(C)CCC(C)(C)[C@]31C
Staphylococcus aureus
  MIC: 8 µg/mL (≈ 26.6 µM)

## C[C@@H]1C=CC(=O)[C@@]2(C)CC[C@@H]3[C@@H]4[C@@](C)(CC[C@@]4(C)CO)C[C@@]132
HL-60
  IC50: 38 nM
RBL-2H3
  inhibition at 20 µg/mL: 10%

## CCOC(=O)N1CCC(=C2c3ccc(Cl)cc3CCc3cccnc32)CC1 [LORATADINE]
RBL-2H3
  inhibition at 20 µg/mL: 35%
